{"source": "paper PMC5433008", "about": "(BMC Neuroscience, 2017)", "tested_on": "NMDA-evoked currents in cultured rat embryonic hippocampal neurons (NMDAr)", "conditions": "500 µM", "data": [{"sequence": "TKRSSRAFRE [EAR7]", "values": [{"measurement": "inhibitory action on NMDA-evoked currents (control peptide)", "result": "No inhibitory action"}]}]}
